Assay results reported in patent US20160304957A1, “TREATMENT AND MODULATION OF GENE EXPRESSION AND SKIN AGING” (DSM NUTRITIONAL PRODUCTS LTD., priority 2006, published 2016).

System: HaCaT human keratinocytes
Assay: Affymetrix GeneChip microarray, transcriptional response to β-carotene and/or UVA
Assay type: cell-based
Conditions: β-carotene 1.5 μM, unirradiated
Method: The cell culture experiments were carried out as described. Briefly, a subclone of passage 65 HaCaT keratinocytes, selected for differentiation capacity, was used at passages 16 to 23 after subcloning. 2×10^5 cells were seeded per 60 millimeter dish. Starting the following day, the cells were pretreated for 2 days with β-carotene at 1.5 μM, a typical concentration in human plasma after moderate dietary supplementation)
β-carotene-containing medium was prepared as follows. Fresh all-E-β-carotene (DSM Nutritional Products, Kaiseraugst, Switzerland) stock solution in THF (containing 0.025% BHT; Fluka Chemie A G, Switzerland) was diluted 1:2 with ethanol and added to cell culture medium to a final concentration of 1.5 μM β-carotene. The solvent concentration in the medium was 0.5% for all treatments. β-carotene-containing medium was prepared fresh for the daily medium changes.
On day 3 of the experiment, the cells were irradiated with a Hönle sun lamp Sol 500 (270 kJ/m^2; Dr. Hönle, Germany).
Five independent, factorially designed cell irradiation experiments were analyzed by microarray hybridization. For each experiment, one chip was hybridized per treatment condition. GeneChip® analysis was done as described in [132], which is incorporated by reference, as if recited in full herein. Gene regulation by β-carotene and/or UVA was calculated relative to placebo.
Changes in gene expression were included in further analysis only if the change factor was […], and if unpaired t-tests yielded p values≦0.05. Upregulations by a […] are labeled bold, downregulations by a change factor of […] are labeled bold italics. (Table 1) To identify the pathways affected by the treatments functional information on the genes was retrieved from public literature databases.

## CC1=C(/C=C/C(C)=C/C=C/C(C)=C/C=C/C=C(C)/C=C/C=C(C)/C=C/C2=C(C)CCCC2(C)C)C(C)(C)CCC1 [β-carotene, All-E-β-carotene]
  N-RAS (X02751) change factor: −1.2
  NCF2; p67-phox; neutrophil oxidase factor (M32011) change factor: −0.8
  NF-κB subunit (S78771) change factor: −0.1
  NF-κB subunit (X61498) change factor: −0.07
  NFκB; p50 (S76638) change factor: −0.46
  NOL1; p120 nucleolar antigen (X55504) change factor: 0.04
  NOTCH3 (U97669) change factor: −0.8
  NOV (X96584) change factor: −0.7
  NOXA (D90070) change factor: −0.26
  NRF1 (L24123) change factor: −0.27
  NRF2, subunit beta 1 (U13045) change factor: −1.5
  OSR1; oxidative-stress responsive 1 (AB017642) change factor: −0.18
  PAR-1; thrombin receptor (M62424) change factor: −0.5
  PAR-2; proteinase activated receptor-2 (U34038) change factor: −0.27
  PAR-2; proteinase activated receptor-2 (U34038, second entry) change factor: −0.03
  PAR-2; proteinase activated receptor-2 (U67058) change factor: 0.03
  PAR-4; protease-activated receptor 4 (AF055917) change factor: −0.49
  RAIDD; death adaptor molecule (U79115) change factor: −0.22
  RB1 (L49229) change factor: −0.8
  RB2/p130 (X74594) change factor: −0.6
  RETSDR1; retinal short-chain dehydrogenase/reductase (AF061741) change factor: 1.1
  RPA; replication protein A 14 kda subunit (rpa) (L07493) change factor: −0.04
  RXRα (U66306) change factor: −0.2
  RXRα (X52773) change factor: −0.2
  Requiem (AF001433) change factor: 0.5
  SMAD 1 (U59423) change factor: −0.27
  SMAD3 (U68019) change factor: 0.5
  SMAD3 (U68019, second entry) change factor: 0.18
  SMAD4 (U44378) change factor: −0.7
  SMAD5 (U59913) change factor: −0.9
  SMAD6 (AF035528) change factor: −0.47
  SMAD7 (AF010193) change factor: −0.19
  SMRT (U37146) change factor: −0.33
  STK15; BTAK (AF011468) change factor: −0.18
  TDAG51; PQ-rich protein; PHLDA1 (Z50194) change factor: 0.27
  TGFβ; transforming growth factor β (X02812) change factor: 0.9
  TIAR; nucleolysin tiar (M96954) change factor: −0.45
  TIEG, EGRα (AF050110) change factor: −0.8
  TLR3; toll-like receptor 3 (U88879) change factor: 0.6
  TOP2; topoisomerase II (J04088) change factor: −0.22
  TRADD; TNF receptor-1 associated protein (L41690) change factor: 0.23
  TRAIL; TNF-related apoptosis inducing ligand (U37518) change factor: 0.15
  TRIP14; ‘2-5’ oligoadenylate synthetase (AJ225089) change factor: −0.07
  TRIP (U77845) change factor: −0.06
  TSSC3 (AF035444) change factor: −0.44
  TSSC3/IPL (AF001294) change factor: −0.6
  VEGF (AF022375) change factor: −0.5
  VEGF (AF024710) change factor: 0.02
  VEGF (M63978) change factor: −0.48
  VEGFR2; VEGF receptor 2; KDR; FLK-1kdr/flk-1 (AF035121) change factor: 0.6
  WEE1 (X62048) change factor: −0.6
  WNT5A (I20861) change factor: −0.47
  WNT5A (I20861, second entry) change factor: −1.7
  XRCC4 (U40622) change factor: −0.05
  bFGF; basic fibroblast growth factor; FGF2 (M27968) change factor: 0.1
  bilirubin udp-glucuronosyltransferase isozyme 2 (M57951) change factor: −0.25
  bullous pemphigoid autoantigen bp180 (M91669) change factor: −0.45
  c-myc (V00568) change factor: 0.1
  c-myc (V00568, second entry) change factor: 0.1
  c-myc binding protein (mbp-1) (M55914) change factor: 0.5
  caspase 2, ICH-1S (U13022) change factor: −0.31
  caspase 7 (U67319) change factor: −0.09
  ceruloplasmin (ferroxidase) (M13699) change factor: 1
  collagen type IV, α-2 (COL4A2) (X05610) change factor: −0.13
  collagen type IV, α-5 (COL4A5) (M58526) change factor: −0.8
  collagen type IV, α-6 (COL4A6) (D21337) change factor: −0.44
  collagen type VII, α-1 (COL7A1) (L02870) change factor: −0.21
  connexin 31 (AF099730) change factor: 0.17
  connexin 45 (U03493) change factor: −0.06
  coproporphyrinogen oxidase (D16611) change factor: −0.21
  cyclin E2 (AF091433) change factor: −0.25
  cyclin E (M73812) change factor: −0.23
  desmocollin type 4 (D17427) change factor: −1.3
  ferritin heavy chain (L20941) change factor: 0.36
  frizzled-2 (I37882) change factor: −0.03
  frizzled-6 (AB012911) change factor: −0.5
  haemochromatosis protein (hla-h) (U60319) change factor: 0.15
  hsp40; heat shock protein 40 (U40992) change factor: −0.6
  integrin α6 (X53586) change factor: −1.1
  integrin α6b (S66213) change factor: −0.9
  integrin α6b (S66213, second entry) change factor: −1.3
  jagged2 (jag2) (AF029778) change factor: −0.02
  keratin 2e (KRT2E); Keratin 2A (AF019084) change factor: −0.46
  keratin 5 (M21389) change factor: 0.9
  keratin 15 (J00124) change factor: 1
  keratin 16 (M28439) change factor: −2
  keratin 17 (Z19574) change factor: 0.04
  mKI67a mrna (long type) for antigen of monoclonal antibody KI-67 (X65550) change factor: −0.3
  mKI67a mrna (long type) for antigen of monoclonal antibody KI-67 (X65550, second entry) change factor: −0.17
  ornithine decarboxylase (M33764) change factor: −0.2
  ornithine decarboxylase (X16277) change factor: −0.32
  p21; wild-type p53 activated fragment-1 (WAF1) (U03106) change factor: −0.5
  p33; ING1b (AB024401) change factor: −0.47
  p160ROCK (U43195) change factor: −0.28
  protoporphyrinogen oxidase (D38537) change factor: −0.32
  rTS α (X67098) change factor: 0.13
  serpinB1 (M93056) change factor: 0.7
  stimulator of Fe transport (AF020761) change factor: 0.03
  thioredoxin reductase (X91247) change factor: −0.08
  thymidylate synthase (X02308) change factor: −0.12
  transferrin receptor (X01060) change factor: −0.05
  uroporphyrinogen III synthase (J03824) change factor: −0.15
  α topoisomerase truncated-form (L47276) change factor: −0.43
